Test results as given in patent US10858321B2, “Composition for inducing cell reprogramming” (GWANGJU INSTITUTE OF SCIENCE AND TECHNOLOGY, priority 2014, dated 2020).
One block for each compound: values may come before it.

Experiments:
[1] = system: C2C12 myoblasts; experiment: MTT assay (cytotoxicity); type: cell-based, mouse; details: for IC50: C2C12 myoblasts, incubated 2 days with compound; for cytotoxicity: result in words, comparison with the indazole derivatives
Protocol: C2C12 myoblasts were seeded in a 96-well plate at a density of 3×10^3 cells per well. The cells were cultured for one day, and then treated with each compound. Next, the cells were incubated for 2 days, and then treated with a serum-free medium containing 3-(4,5-dimethylthiazol-2-yl)-2,5-diphenyltetrazolium bromide (MTT) for 3 hours. After removal of the medium, the cells were incubated in DMSO for 10 minutes while they were shaken. The absorbance at 570 nm was measured by a microreader (VersaMax, Molecular Devices) (see FIG. 4).

[2] = system: C2C12 mouse skeletal myoblasts; experiment: Cell screening by Alizarin red staining (direct reprogramming of myoblasts into osteoblasts); type: cell-based; parameters: key to Alizarin red staining (osteoblasts): ++ (strong positive); + (weak positive); − (negative); details: for Alizarin red staining (osteoblasts): C2C12 myoblasts treated 72 hours with compound, then osteogenic differentiation inducing medium 14 days, reversine 100 nM; for reprogramming potential in differentiation into osteoblasts: Alizarin red staining, result in words
Protocol: A method for identifying compounds that induce cell reprogramming was based on a previous study (PMID: 23044010 and 18974773) on the myocyte-to-osteocyte conversion by bone formation induction and a previous reversine publication (Chen S 2004).
C2C12 mouse skeletal myoblasts were seeded in a 24-well cell culture dish at a density of 1×10^4 cells per well. 24 Hours after seeding, the compound of interest was added to three well at a concentration of […]. For a positive control, the cells were treated with 100 nM reversine or 2 μM BIO. The two compounds are known to induce the conversion of myoblasts to […] (Chen S 2004 and Kim WH recapitulate papers). For a negative control, the cells were untreated or treated with DMSO. The cells were treated with each compound for a total of 72 hours, and were further treated with each compound after 48 hours. The cytotoxicity of each compound could be confirmed from disappearance of a portion of the cells and from floating cell debris during culture, and a compound causing cytotoxicity was screened again at a concentration of 250 nM. After 72 hours, the medium was replaced with an osteogenic differentiation inducing medium (treated for 14 days with a DMEM supplemented with 10% FBS, […] ascorbic acid-2-phosphate, 0.1 μM dexamethasone, 10 mM β-glycerophosphate, 50 units/mL of penicillin, and […] streptomycin). The osteogenic differentiation inducing medium was based on one previously described in direct cell reprogramming (reversine papers, Chen S 2004 and Chen S 200/). Direct cell reprogramming from myocytes to osteocytes was analyzed by Alizarin red staining that detects calcium deposits (Gregory CA 2004 PMID: 15136169) in bone lineage cells.
Cells were washed once with PBS, and then fixed with phosphate-buffered formalin for 20 minutes. The fixed cells were washed with distilled water, and immersed in a solution of 1% Alizarin red-S in water for 5 minutes. The remaining dye was washed out with distilled water. The cells were dried, and then imaged with an optical microscope (CKX41 Olympus). The stained cells did look red, and a compound corresponding to such cells was selected as a ‘hit’ compound and further analyzed.

[3] = system: adipocytes; experiment: Oil red O staining (differentiation into adipocytes); type: cell-based; parameters: key to Oil red O staining (adipocytes): ++ (strong positive); + (weak positive); − (negative); details: for reprogramming potential in differentiation into adipocytes: oil red O staining, result in words
[4] = target: T1, GSK-3β (Homo sapiens, UniProt P49841); experiment: HTRF kinase assay, GSK-3β; type: biochemical; details: 1 μM compound
T1 construct: purchased Millipore (Billerica, Mass.)
Protocol: (§1) The inhibitory activities of indazole derivatives against GSK-3 β and Aurora A were analyzed by HTRF (homogeneous time-resolved fluorescence) assay. The HTRF assay is an assay method that detects the phosphorylation of peptide substances in the presence of ATP. Phosphorylated substances were detected by TR-FRET (Time Resolved-Fluorescence Resonance) signals. Recombinant GSK-3 β and Aurora A kinase were purchased from Millipore (Billerica, Mass.). Using a HTRF KinEASE kit (Cisbio), the assay was performed. Each of GSK-3 β and Aurora A was treated with 1 μM of each indazole compound, and the degree of inhibition of phosphorylation was analyzed. The assay was composed of a compound-enzyme mixture and peptide substance dissolved in kinase reaction buffer (250 mM HEPES (pH 7.0), 0.5 mM orthovanadate, 0.05% BSA, 0.1% NaN3). After addition of detection buffer, the TR-FRET signal was detected by an EnVision multi-label reader.

[5] = target: T2, Aurora A (Homo sapiens, UniProt O14965); experiment: HTRF kinase assay, Aurora A; type: biochemical; details: 1 μM compound
T2 construct: purchased Millipore (Billerica, Mass.)
T2 sequence (O14965 1-403): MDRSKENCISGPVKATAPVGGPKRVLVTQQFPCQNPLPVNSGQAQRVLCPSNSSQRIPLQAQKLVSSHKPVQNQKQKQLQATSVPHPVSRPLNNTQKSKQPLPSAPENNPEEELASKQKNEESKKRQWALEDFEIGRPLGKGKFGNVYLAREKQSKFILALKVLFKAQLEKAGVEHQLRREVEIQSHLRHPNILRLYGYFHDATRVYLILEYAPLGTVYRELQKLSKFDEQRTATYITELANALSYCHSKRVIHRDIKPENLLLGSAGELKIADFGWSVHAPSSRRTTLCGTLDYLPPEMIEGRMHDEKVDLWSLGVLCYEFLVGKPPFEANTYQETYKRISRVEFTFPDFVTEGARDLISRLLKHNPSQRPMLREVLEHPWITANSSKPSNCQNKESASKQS
Protocol: as §1

T1 sequence (P49841 whole entry, species assumed): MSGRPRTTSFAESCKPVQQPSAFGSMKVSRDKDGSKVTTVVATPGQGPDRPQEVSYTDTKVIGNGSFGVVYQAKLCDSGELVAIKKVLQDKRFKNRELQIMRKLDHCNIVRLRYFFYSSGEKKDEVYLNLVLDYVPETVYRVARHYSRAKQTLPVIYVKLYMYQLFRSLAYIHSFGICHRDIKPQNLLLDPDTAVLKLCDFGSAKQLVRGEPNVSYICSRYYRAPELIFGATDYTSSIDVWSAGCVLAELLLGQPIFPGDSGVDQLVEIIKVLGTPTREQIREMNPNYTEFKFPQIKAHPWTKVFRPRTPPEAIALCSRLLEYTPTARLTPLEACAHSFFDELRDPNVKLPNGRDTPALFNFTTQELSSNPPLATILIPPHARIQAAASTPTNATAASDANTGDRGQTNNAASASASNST

SMILES: CCCN1CCN(C(=O)c2ccc3[nH]nc(C(=NO)Nc4ccccc4)c3c2)CC1 [LDD-1987, N′-hydroxy-N-phenyl-5-(4-propylpiperazine-1-carbonyl)-1H-indazole-3-carboxamide]
IC50 [1]: > 10 µM
Alizarin red staining (osteoblasts) [2]: +
Oil red O staining (adipocytes) [3]: ++
reprogramming potential in differentiation into adipocytes [3]: strong reprogramming potential

SMILES: O=C(O)c1ccc2[nH]nc(NC(=NO)c3ccccc3)c2c1 [LDD-2194, 3-(N′-hydroxybenzimidamido)-1H-indazole-5-carboxylic Acid]
IC50 ([1]; Mus musculus, 48 h): > 10 µM

SMILES: c1nc2nc(Nc3ccc(N4CCOCC4)cc3)nc(NC3CCCCC3)c2[nH]1 [Reversine, reference compound]
cytotoxicity [1]: high cytotoxicity
reprogramming potential in differentiation into osteoblasts [2]: strong reprogramming potential
Alizarin red staining (osteoblasts) [2]: ++
Oil red O staining (adipocytes) [3]: ++

SMILES: COc1ccc(NC(=NO)c2n[nH]c3ccc(C(=O)N4CCCCC4)cc23)cc1 [LDD-2200, N′-hydroxy-N-(4-methoxyphenyl)-5-(piperidine-1-carbonyl)-1H-indazole-3-carboxamide]
IC50 [1]: > 10 µM
reprogramming potential in differentiation into osteoblasts [2]: strong reprogramming potential
Alizarin red staining (osteoblasts) [2]: ++

SMILES: O=C(c1ccc2[nH]nc(NC(=NO)c3ccccc3)c2c1)N1CCCCC1 [LDD-1945, N′-hydoxy-N-(5-(piperidine-1-carbonyl)-111-indazol-3-yl)benzimidamide]
IC50 [1]: > 10 µM
reprogramming potential in differentiation into osteoblasts [2]: strong reprogramming potential
Alizarin red staining (osteoblasts) [2]: ++

SMILES: O=C(c1ccc2[nH]nc(C(=NO)Nc3ccc(F)cc3)c2c1)N1CCCCC1 [LDD-2199, N-(4-fluorophenyl)-N′-hydroxy-5-(piperidine-1-carbonyl)-1H-indazole-3-carboxamide]
IC50 [1]: > 10 µM
reprogramming potential in differentiation into osteoblasts [2]: strong reprogramming potential
Alizarin red staining (osteoblasts) [2]: ++

SMILES: O=C(O)c1ccc2[nH]nc(C(=NO)Nc3ccccc3)c2c1 [LDD-1986, 3-(N′-hydroxy-N-phenylcarbamimidoyl)-1H-indazole-5-carboxylic Acid]
IC50 ([1]; Mus musculus, 48 h): > 10 µM
Alizarin red staining (osteoblasts) [2]: +
Oil red O staining (adipocytes) [3]: ++
reprogramming potential in differentiation into adipocytes [3]: strong reprogramming potential

SMILES: COC(=O)c1ccc2[nH]nc(NC(=NO)c3ccccc3)c2c1 [LDD-2195, Methyl-3-(N′-hydroxybenzimidamido)-1H-indazole-5-carboxylate]
IC50 ([1]; Mus musculus, 48 h): > 10 µM

SMILES: O=[N+]([O-])c1ccc2[nH]nc(NS(=O)(=O)c3ccccc3)c2c1 [LDD-1667, N-(5-nitro-111-indazol-3-yl)benzenesulfonamide]
% Inhibition at 1 μM concentration, GSK-3β [4]: 0%
Alizarin red staining (osteoblasts) [2]: −
% Inhibition at 1 μM concentration, Aurora-A [5]: 0%

SMILES: O=C1Nc2cc(Br)ccc2/C1=C1/Nc2ccccc2/C1=N\O [BIO, reference compound]
cytotoxicity [1]: high cytotoxicity

SMILES: COC(=O)c1ccc2[nH]nc(C(=NO)Nc3ccccc3)c2c1 [LDD-2196, Methyl-3-(N′-hydroxy-N-phenylcarbamimidoyl)-1H-indazole-5-carboxylate]
IC50 ([1]; Mus musculus, 48 h): > 10 µM

SMILES: COc1ccc(NC(=NO)c2n[nH]c3ccc(C(=O)O)cc23)cc1 [LDD-2198, 3-(N′-hydroxy-N-(4-methoxyphenyl)carbaminidoyl)-1H-indazole-5-carboxylic Acid]
IC50 [1]: > 10 µM

SMILES: COCCN1CCN(C(=O)c2ccc3[nH]nc(C(=NO)Nc4ccccc4)c3c2)CC1 [LDD-1988, N′-hydroxy-5-(4-(2-methoxyethyl)piperazine-1-carbonyl)-N-phenyl-1H-indazole 3-carboximidamide]
IC50 ([1]; Mus musculus, 48 h): > 10 µM
Alizarin red staining (osteoblasts) [2]: +
Oil red O staining (adipocytes) [3]: ++
reprogramming potential in differentiation into adipocytes [3]: strong reprogramming potential

SMILES: O=C(O)c1ccc2[nH]nc(C(=NO)Nc3ccc(F)cc3)c2c1 [LDD-2197, 3-N-(4-fluorophenyl)-N′-hydroxycarbamimidoyl-1H-indazole-5-carboxylic Acid]
IC50 [1]: > 10 µM

inhibition at 1 µM ([4]; read-out: % Inhibition at 1 μM concentration, GSK-3β): 0.5%
inhibition at 1 µM ([5]; read-out: % Inhibition at 1 μM concentration, Aurora-A): 32.5%
SMILES: O=C(Nc1n[nH]c2ccc(C(=O)N3CCCCC3)cc12)c1ccccc1 [LDD-1820, N-(5-(piperidine-1-carbonyl)-1H-indazol-3-yl)benzamide]
Alizarin red staining (osteoblasts) [2]: −

SMILES: O=C(c1ccc2[nH]nc(C(=NO)Nc3ccccc3)c2c1)N1CCCCC1 [LDD-1821, N′-hydroxy-N-phenyl-5-(piperidine-1-carbonyl)-1H-indazole-3-carboxamide]
% Inhibition at 1 μM concentration, GSK-3β ([4]; 1 µM): no inhibitory activity
% Inhibition at 1 μM concentration, GSK-3β ([4]; listed as LDD1821, 1 µM): 0.2%
IC50 [1]: > 10 µM
reprogramming potential in differentiation into osteoblasts [2]: strong reprogramming potential
Alizarin red staining (osteoblasts) [2]: ++
% Inhibition at 1 μM concentration, Aurora-A ([5]; 1 µM): no inhibitory activity
% Inhibition at 1 μM concentration, Aurora-A ([5]; listed as LDD1821, 1 µM): 0%
Oil red O staining (adipocytes) [3]: ++
reprogramming potential in differentiation into adipocytes [3]: strong reprogramming potential

% Inhibition at 1 μM concentration, GSK-3β [4]: 6.5%
% Inhibition at 1 μM concentration, Aurora-A [5]: 0%
SMILES: O=C(Nc1n[nH]c2ccc([N+](=O)[O-])cc12)c1ccccc1 [LDD-1664, N-(5-nitro-1(2)H-indazol-3-yl)-benzamide]
reprogramming potential in differentiation into osteoblasts [2]: strong reprogramming potential
Alizarin red staining (osteoblasts) [2]: ++
